Article PMC12440824, “Chimeric deubiquitinase engineering reveals structural basis for specific inhibition of the mitophagy regulator USP30” (Nature Structural & Molecular Biology, 2025)
Values joined by “and” are separate entries in the source; they are usually repeats but may differ in a detail not shown here. Identical values can stand only once.

How the values were obtained:
[1] = test system: T1, Flag-tagged, full-length USP30 F453Y in HEK293 cells; experiment: Cellular ubiquitin probe competition, overexpressed Flag-tagged USP30 F453Y; format: cell-based, human; details: 2 µM compound, 2 h; HA-Ub-PA probe in lysate
T1 construct: C-terminally Flag-tagged human USP30 (1–517) was used for transient transfection; expressed in transfected cells; host or cells: HEK293, transient transfection of a pOPINE vector
Experimental: (§1) HEK293 cells (8 × 10^5 cells per well) were seeded in six-well plates and cultivated for 24 h. PEI transfecting reagent (Polysciences) was pre-incubated for 10 min with the vectors in 200 μl Opti-MEM medium (2 µg DNA per well). Cells were transfected and incubated for 48 h. Following the treatment with either compounds or DMSO in fresh medium for an additional 2 h, cells were processed as described below. Cells were seeded at 8 × 10^5 cells per well and grown for 48 h. […] The medium was aspirated, and cells were washed once with ice-cold PBS. Cells were collected by scraping in lysis buffer (150 mM NaCl, 250 mM sucrose, 50 mM Tris, pH 8.0, 5 mM TCEP) supplemented with EDTA-free complete protease inhibitor cocktail and benzonase. Suspended cells were homogenized by 12 bursts of a microtip probe sonicator (Branson Sonifier 450) at 10% amplitude with pulses of 1 s on ice. Remaining cell debris was separated by centrifugation (20,817g, 5 min, 4 °C). […] After incubation for 10 min at room temperature, reactions were quenched by the addition of 4× reducing LDS sample buffer. Samples were resolved by SDS–PAGE and further analyzed via western blot. Using a Trans-Blot Turbo system (Bio-Rad, 1.0 A, 25 V, 30 min), proteins were blotted onto a nitrocellulose membrane. […]

USP30^ch1 = USP30^ch1 (Homo sapiens, UniProt Q70CQ3); experiment: Thermal shift assay, USP30 ch1; format: binding; details: 20 μM inhibitor
Chain of USP30^ch1 (Q70CQ3 64-502): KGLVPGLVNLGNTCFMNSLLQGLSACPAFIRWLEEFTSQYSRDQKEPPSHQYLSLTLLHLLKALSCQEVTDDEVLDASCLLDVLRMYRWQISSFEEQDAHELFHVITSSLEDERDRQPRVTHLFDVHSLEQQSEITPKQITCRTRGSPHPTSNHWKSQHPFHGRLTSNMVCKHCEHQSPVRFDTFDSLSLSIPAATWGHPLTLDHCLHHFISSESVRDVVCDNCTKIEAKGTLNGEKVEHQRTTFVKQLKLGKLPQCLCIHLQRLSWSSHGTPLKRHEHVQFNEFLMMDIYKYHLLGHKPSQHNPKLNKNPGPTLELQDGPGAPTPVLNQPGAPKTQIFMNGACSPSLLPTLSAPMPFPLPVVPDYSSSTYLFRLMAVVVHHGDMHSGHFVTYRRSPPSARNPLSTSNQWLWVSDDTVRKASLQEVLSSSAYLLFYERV
Chain of USP30^ch1 (Q93009 325-395 partner): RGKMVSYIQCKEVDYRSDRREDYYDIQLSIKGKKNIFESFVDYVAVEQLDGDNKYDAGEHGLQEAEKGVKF
Experimental: (§2) The thermal stability of USP30 constructs and effects of either inhibitor or Ub-PA binding were determined by thermal shift assays. Inhibitor, Ub-PA and SYPRO orange dye (Sigma, 5,000× stock in DMSO) solutions were prepared in 1× PBS, 4 mM DTT. Inhibitor/Ub-PA was prediluted to 100 µM, and SYPRO orange dye was prediluted to 50× (from the commercial stock). Mixtures of protein, inhibitor/Ub-PA and SYPRO were prepared with inhibitor/Ub-PA at a final concentration of 20 μM, SYPRO at a final concentration of 4× and protein at a final concentration of 2 μM for c1, 4 μM for ch1, ch4 and c2 and 3 μM for ch2 and ch3. Samples were added in triplicate to a white 96-well PCR plate (Bio-Rad). Fluorescence intensity was monitored (excitation, 450–490 nm; emission, 560–580 nm) at a gradient of 20–90 °C (increment of 0.3 °C, hold for 5 s before read) on a real-time PCR system (Bio-Rad).

USP30^ch3 I154A = USP30^ch3 I154A (Homo sapiens, UniProt Q70CQ3, I154A, form not given); experiment: Ub–RhoG cleavage enzyme inhibition assay, chimera 3 I154A; format: biochemical; details: mean n=3
Chain of USP30^ch3 I154A (Q70CQ3 64-502 I154A, form open): as the sequence (Q70CQ3 64-502) above, with I91A counted along it
Chain of USP30^ch3 I154A (P54578 248-318 partner, form open): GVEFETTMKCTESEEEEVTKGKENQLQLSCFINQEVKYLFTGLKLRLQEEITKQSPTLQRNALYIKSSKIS
Chain of USP30^ch3 I154A (Q9P2H5 821-846 partner, form open): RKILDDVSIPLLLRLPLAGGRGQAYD
Experimental: (§3) Enzyme kinetics were performed in black, low-volume, non-binding-surface 384-well plates. […] Next, 10 µl of 2× enzyme solution was added in triplicate to the plate. The reaction was started by adding 10 µl of 2× substrate solution. […] Inhibitor solution (4×) was added to 4× enzyme solution to create a 2× enzyme–inhibitor mixture. Next, 10 µl of this 2× enzyme–inhibitor mixture was then added to the plate in triplicate, and the plate was incubated at room temperature for 90 min. The reaction was started by adding 10 µl of 2× Ub–RhoG substrate. […] Data were analyzed with GraphPad Prism.

USP30^ch4 = experiment: Thermal shift assay, USP30 ch4; format: binding, human; details: 20 μM inhibitor; for ΔTm, USP30^ch4: replicates or average
Experimental: as §2

USP30^ch3 = USP30^ch3 (Homo sapiens, UniProt Q70CQ3); experiment: Ub–RhoG cleavage enzyme inhibition assay, chimera 3 (WT); format: biochemical; details: mean n=3
Chain of USP30^ch3 (Q70CQ3 64-502): as the sequence (Q70CQ3 64-502) above
Chain of USP30^ch3 (P54578 248-318 partner): as the sequence (P54578 248-318 partner, form open) above
Experimental: as §3

USP30^ch3 A162S = USP30^ch3 A162S (Homo sapiens, UniProt Q70CQ3, A162S, form not given); experiment: Thermal shift assay, USP30 ch3 A162S; format: binding; details: 20 μM inhibitor
Chain of USP30^ch3 A162S (Q70CQ3 64-502 A162S, form open): as the sequence (Q70CQ3 64-502) above, with A99S counted along it
Chain of USP30^ch3 A162S (P54578 248-318 partner, form open): as the sequence (P54578 248-318 partner, form open) above
Experimental: as §2

recombinant USP30 = details: read-out: Ub–Rho IC50 against recombinant USP30; cited from earlier work
USP30^ch3 F453Y [2] = biological target: T2, USP30^ch3 F453Y (Homo sapiens, UniProt Q70CQ3, F453Y, form not given); experiment: Ub–RhoG cleavage enzyme inhibition assay, chimera 3 F453Y; format: biochemical; design: USP30ch3 F453Y activity / USP30ch3 F453Y activity (ED Fig. 7e series): scale not given here; details: for reduction of inhibition potency by F453Y substitution (specificity window vs WT): USP30^ch3 F453Y vs WT; for USP30ch3 F453Y activity (ED Fig. 7e series) / USP30ch3 F453Y activity: mean n=3; for USP30ch3 F453Y activity: Fig. 4e,g
T2 sequence (Q70CQ3 64-502 F453Y, form open): as the sequence (Q70CQ3 64-502) above, with F390Y counted along it
T2 sequence (P54578 248-318 partner, form open): as the sequence (P54578 248-318 partner, form open) above
Experimental: as §3

USP30^ch3 F453Y [3] = biological target: T2, USP30^ch3 F453Y; experiment: Thermal shift assay, USP30 ch3 F453Y; format: binding; details: 20 μM inhibitor
Experimental: as §2

[4] = test system: overexpressed USP30 F157A, I154A, A162S in HEK293 cells; experiment: Cellular ubiquitin probe competition, overexpressed USP30 F157A, I154A, A162S; format: cell-based, human; details: 2 µM compound, 2 h
Experimental: as §1

## CC(C)(C)NS(=O)(=O)c1ccc(NC(=O)[C@H](Cc2ccccc2)NC(=O)c2ccc(F)cc2)cc1 [compound 39]
[1]
  probe labeling of Flag-USP30 F453Y: equally labeled
USP30^ch1
  Tm in presence of compound, USP30^ch1: 56.1 °C
USP30^ch3 I154A; inhibitor 0.001563 nM
  USP30ch3 I154A activity: 1.024
USP30^ch3 I154A; inhibitor 0.00625 nM
  USP30ch3 I154A activity: 1.056
USP30^ch3 I154A; inhibitor 0.025 nM
  USP30ch3 I154A activity: 0.9999
USP30^ch3 I154A; inhibitor 0.1 nM
  USP30ch3 I154A activity: 1.007
USP30^ch3 I154A; inhibitor 0.39 nM
  USP30ch3 I154A activity: 0.9637
USP30^ch3 I154A; inhibitor 1.56 nM
  USP30ch3 I154A activity: 0.9166
USP30^ch3 I154A; inhibitor 6.25 nM
  USP30ch3 I154A activity: 0.8225
USP30^ch3 I154A; inhibitor 25 nM
  USP30ch3 I154A activity: 0.6606
USP30^ch3 I154A; inhibitor 100 nM
  USP30ch3 I154A activity: 0.4173
USP30^ch3 I154A; inhibitor 400 nM
  USP30ch3 I154A activity: 0.274
USP30^ch3 I154A; inhibitor 1600 nM
  USP30ch3 I154A activity: 0.2192
USP30^ch4
  Tm in presence of compound, USP30^ch4: 60.3 °C
USP30^ch4; 20 µM
  ΔTm, USP30^ch4: 8.8 °C
USP30^ch4; listed as NK017, 20 µM
  ΔTm, USP30^ch4: 9.0 °C and 8.7 °C (2×)
USP30^ch3; inhibitor 0.001563 nM
  USP30ch3 WT activity (Fig. 5d / ED Fig. 7e series): 0.9251
USP30^ch3; inhibitor 0.00625 nM
  USP30ch3 WT activity (Fig. 5d / ED Fig. 7e series): 0.867
  USP30ch3 activity: 0.8546
USP30^ch3; inhibitor 0.025 nM
  USP30ch3 WT activity (Fig. 5d / ED Fig. 7e series): 0.8429
  USP30ch3 activity: 0.7063
USP30^ch3; inhibitor 0.1 nM
  USP30ch3 WT activity (Fig. 5d / ED Fig. 7e series): 0.705
  USP30ch3 activity: 0.6531
USP30^ch3; inhibitor 0.39 nM
  USP30ch3 WT activity (Fig. 5d / ED Fig. 7e series): 0.5733
  USP30ch3 activity: 0.4658
USP30^ch3; inhibitor 1.56 nM
  USP30ch3 WT activity (Fig. 5d / ED Fig. 7e series): 0.4495
  USP30ch3 activity: 0.3269
USP30^ch3; inhibitor 6.25 nM
  USP30ch3 WT activity (Fig. 5d / ED Fig. 7e series): 0.2804
  USP30ch3 activity: 0.1958
USP30^ch3; inhibitor 25 nM
  USP30ch3 WT activity (Fig. 5d / ED Fig. 7e series): 0.1378
  USP30ch3 activity: 0.09897
USP30^ch3; inhibitor 100 nM
  USP30ch3 WT activity (Fig. 5d / ED Fig. 7e series): 0.05989
  USP30ch3 activity: 0.03567
USP30^ch3; inhibitor 400 nM
  USP30ch3 WT activity (Fig. 5d / ED Fig. 7e series): 0.03092
  USP30ch3 activity: 0.008529
USP30^ch3; inhibitor 1600 nM
  USP30ch3 WT activity (Fig. 5d / ED Fig. 7e series): 0.02661
  USP30ch3 activity: -0.001344
USP30^ch3; inhibitor 0.0015625 (0.001563) nM
  USP30ch3 activity: 0.9081
USP30^ch3 A162S
  Tm in presence of compound, USP30^ch3 A162S: 60.0 °C
Recombinant USP30
  IC50: 2 to 20 nM
USP30^ch3 F453Y [2]
  reduction of inhibition potency by F453Y substitution (specificity window vs WT): three orders of magnitude
USP30^ch3 F453Y [2]; inhibitor 0.001563 nM
  USP30ch3 F453Y activity (ED Fig. 7e series): 1.055
  USP30ch3 F453Y activity: 0.9971
USP30^ch3 F453Y [2]; inhibitor 0.00625 nM
  USP30ch3 F453Y activity (ED Fig. 7e series): 1.076
  USP30ch3 F453Y activity: 1.054
USP30^ch3 F453Y [2]; inhibitor 0.025 nM
  USP30ch3 F453Y activity (ED Fig. 7e series): 1.018
  USP30ch3 F453Y activity: 1.004
USP30^ch3 F453Y [2]; inhibitor 0.1 nM
  USP30ch3 F453Y activity (ED Fig. 7e series): 0.9989
  USP30ch3 F453Y activity: 0.9561
USP30^ch3 F453Y [2]; inhibitor 0.39 nM
  USP30ch3 F453Y activity (ED Fig. 7e series): 0.8995
  USP30ch3 F453Y activity: 0.9204
USP30^ch3 F453Y [2]; inhibitor 1.56 nM
  USP30ch3 F453Y activity (ED Fig. 7e series): 0.9776
  USP30ch3 F453Y activity: 0.9185
USP30^ch3 F453Y [2]; inhibitor 6.25 nM
  USP30ch3 F453Y activity (ED Fig. 7e series): 0.9466
  USP30ch3 F453Y activity: 0.9079
USP30^ch3 F453Y [2]; inhibitor 25 nM
  USP30ch3 F453Y activity (ED Fig. 7e series): 0.9111
  USP30ch3 F453Y activity: 0.8377
USP30^ch3 F453Y [2]; inhibitor 100 nM
  USP30ch3 F453Y activity (ED Fig. 7e series): 0.8886
  USP30ch3 F453Y activity: 0.7744
USP30^ch3 F453Y [2]; inhibitor 400 nM
  USP30ch3 F453Y activity (ED Fig. 7e series): 0.7448
  USP30ch3 F453Y activity: 0.5461
USP30^ch3 F453Y [2]; inhibitor 1600 nM
  USP30ch3 F453Y activity (ED Fig. 7e series): 0.7279
  USP30ch3 F453Y activity: 0.3171
USP30^ch3 F453Y [3]
  Tm in presence of compound, USP30^ch3 F453Y: 58.5 °C

## CC(C)(CO)NS(=O)(=O)c1ccc(NC(=O)[C@H](Cc2ccccc2)NC(=O)c2ccc(F)cc2)cc1 [NK036]
[1]
  probe labeling of Flag-USP30 F453Y: equally labeled
USP30^ch1
  Tm in presence of compound, USP30^ch1: 55.2 °C
[4]
  inhibition of overexpressed USP30 F157A, I154A, A162S in cells: refractory to inhibition
USP30^ch4
  Tm in presence of compound, USP30^ch4: 59.2 °C
USP30^ch4; 20 µM
  ΔTm, USP30^ch4: 7.7 °C and 7.6 °C and 7.9 °C
USP30^ch3 A162S
  Tm in presence of compound, USP30^ch3 A162S: 59.7 °C
USP30^ch3 F453Y [2]
  reduction of inhibition potency by F453Y substitution (specificity window vs WT): more than two orders of magnitude
USP30^ch3 F453Y [3]
  Tm in presence of compound, USP30^ch3 F453Y: 58.2 °C
